Results on two compounds are retold here after patent US10538497B2, “Compounds as indoleamine 2,3-dioxygenase inhibitors” (Merck Sharp & Dohme Corp., priority 2015, dated 2020).

The target in assay [1] is T1, IDO1 (Homo sapiens (Human), UniProt P14902). Nature of the assay: IDO1 Cellular Assay in Frozen HEK293 Cells Transiently Transfected with Human IDO1. To be noted: HEK293 cells transiently transfected with human IDO1; read-out: IDO1 HEK293 Cell Assay, IC50. It counts as cell-based.
Assay [2] concerns the target T1, IDO1. Nature of the assay: IDO1 In Vivo Assay (hIDO1-CT26 murine model). Further details: species or system mouse. To be noted: oral administration, 100 and 300 mg/kg. As for the experimental part: hIDO1-CT26, a murine cell line generated in house to constitutively express the human IDO1 protein, was cultured in RPMI-1640+10% FBS+500 μM L-tryptophan in a standard cell incubator (37° C., 5% CO2). At 80% confluency, cells are rinsed in TrypLE, then incubated with TrypLE until fully detached (usually 1-5 min), resuspended in complete media, spun down (1000 rpm, 4° C., 5 min), and resuspended in phenol red-free RPMI-1640 before counting.
Two millions hIDO1-CT26 cells (20×10E6 cells/ml) in 50% phenol red-free RPMI-1640/50% Matrigel (growth factor reduced, GFR) are implanted subcutaneously in the right flank of anesthetized immunocompromised animals (CD-1 Nu/Nu, Charles River Labs). Ten days following implantation, tumors reach an average volume of 180 mm^3 at which point animals are randomized into treatment groups.
Animals are treated with IDO1 inhibitors by oral gavage (PO) every 12 h (BID dosing). Based on experimental design, animals will receive a minimum of 1 dose. At various times following the last dose, animals will be euthanized (CO2 asphyxiation), blood will be collected via cardiac puncture for plasma, and tumors will be resected. For plasma preparation, whole blood is transferred to plasma tube, and stored on ice prior to centrifugation. […]

T1 sequence (P14902 whole entry): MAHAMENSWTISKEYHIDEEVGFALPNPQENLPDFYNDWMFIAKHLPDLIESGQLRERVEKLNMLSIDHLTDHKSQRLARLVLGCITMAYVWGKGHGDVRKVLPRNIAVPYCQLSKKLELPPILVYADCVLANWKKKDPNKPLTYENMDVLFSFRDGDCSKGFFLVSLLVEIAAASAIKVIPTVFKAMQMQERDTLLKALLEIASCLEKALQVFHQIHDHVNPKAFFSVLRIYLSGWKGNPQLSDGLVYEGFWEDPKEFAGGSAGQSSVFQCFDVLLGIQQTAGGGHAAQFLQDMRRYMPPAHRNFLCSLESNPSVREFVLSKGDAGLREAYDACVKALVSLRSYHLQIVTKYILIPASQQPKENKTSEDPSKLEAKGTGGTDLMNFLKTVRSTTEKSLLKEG

Broadly, the IC50 is the concentration that gives 50% inhibition. In the case of `O=C(CSc1nonc1/C(=N/O)Nc1ccc(F)c(Br)c1)NC[C@@H](O)CO` [Example 42, (R)-2-((4-(N-(3-bromo-4-fluorophenyl)-N′-hydroxycarbamimidoyl)-1,2,5-oxadiazol-3-yl)thio)-N-(2,3-dihydroxypropyl)acetamide], at IDO1 [1], the IC50 stood at 59.6 nM. The “kynurenine levels in both plasma and tumor” value on IDO1 [2] is on record as “dose-dependent reduction”.

In the case of `NC(=O)NCCSc1nonc1/C(=N/O)Nc1ccc(F)c(Br)c1` [Example 46, N-(3-Bromo-4-fluorophenyl)-N′-hydroxy-4-((2-ureidoethyl)thio)-1,2,5-oxadiazole-3-carboximidamide], the IC50 on IDO1 [1] came to 16.9 nM. The “kynurenine levels in both plasma and tumor” value on IDO1 [2] is “dose-dependent reduction”.
